Measured values from ChEMBL document CHEMBL3797055, “Glabridin-chalcone hybrid molecules: drug resistance reversal agent against clinical isolates of methicillin-resistant Staphylococcus aureus” (Medchemcomm, 2016).
Converted amounts (≈) assume the structure as drawn.

Legend:
Assay type in all cases: functional
Staphylococcus aureus [1] = assay: Potentiation of norfloxacin-induced antibacterial activity against clinical isolates of methicillin-resistant Staphylococcus aureus ST10760 assessed as reduction in norfloxacin MIC by checkerboard assay relative to control
Staphylococcus aureus [2] = assay: Ratio of MIC for clinical isolates of methicillin-resistant Staphylococcus aureus ST2071 to MIC for clinical isolates of methicillin-resistant Staphylococcus aureus ST2071 in presence of norfloxacin
Staphylococcus aureus [3] = assay: Bactericidal activity against clinical isolates of methicillin-resistant Staphylococcus aureus ST2071 assessed as reduction in viability at 0.5 MIC after 24 hrs by time kill kinetic analysis relative to control
Staphylococcus aureus [4] = assay: Potentiation of norfloxacin-induced antibacterial activity against clinical isolates of methicillin-resistant Staphylococcus aureus P4650 assessed as reduction in norfloxacin MIC by checkerboard assay relative to control
Staphylococcus aureus [5] = assay: Potentiation of norfloxacin-induced antibacterial activity against clinical isolates of methicillin-resistant Staphylococcus aureus ST2071 assessed as norfloxacin MIC by checkerboard assay
Staphylococcus aureus [6] = assay: Bactericidal activity against clinical isolates of methicillin-resistant Staphylococcus aureus ST2071 assessed as reduction in viability at 0.5 MIC after 24 hrs by time kill kinetic analysis in presence of norfloxacin relative to control
Staphylococcus aureus [7] = assay: Bactericidal activity against clinical isolates of methicillin-resistant Staphylococcus aureus ST2071 assessed as reduction in viability at MIC after 24 hrs by time kill kinetic analysis relative to control
Staphylococcus aureus [8] = assay: Ratio of MIC for clinical isolates of methicillin-resistant Staphylococcus aureus P4423 to MIC for clinical isolates of methicillin-resistant Staphylococcus aureus P4423 in presence of norfloxacin
Staphylococcus aureus [9] = assay: Antibacterial activity against clinical isolates of methicillin-resistant Staphylococcus aureus ST10760 by broth microdilution assay
Staphylococcus aureus [10] = assay: Potentiation of norfloxacin-induced antibacterial activity against clinical isolates of methicillin-resistant Staphylococcus aureus ST10342 assessed as norfloxacin MIC by checkerboard assay
Staphylococcus aureus [11] = assay: Antibacterial activity against Staphylococcus aureus MTCC 96 by broth microdilution assay
Staphylococcus aureus [12] = assay: Potentiation of norfloxacin-induced antibacterial activity against clinical isolates of methicillin-resistant Staphylococcus aureus ST10342 assessed as reduction in norfloxacin MIC by checkerboard assay relative to control
Staphylococcus aureus [13] = assay: Antibacterial activity against clinical isolates of methicillin-resistant Staphylococcus aureus ST10342 by checkerboard assay in presence of norfloxacin
Staphylococcus aureus [14] = assay: Ratio of MIC for clinical isolates of methicillin-resistant Staphylococcus aureus ST10760 to MIC for clinical isolates of methicillin-resistant Staphylococcus aureus ST10760 in presence of norfloxacin
Staphylococcus aureus [15] = assay: Potentiation of norfloxacin-induced antibacterial activity against clinical isolates of methicillin-resistant Staphylococcus aureus P4423 assessed as reduction in norfloxacin MIC by checkerboard assay relative to control
Staphylococcus aureus [16] = assay: Potentiation of norfloxacin-induced antibacterial activity against clinical isolates of methicillin-resistant Staphylococcus aureus ST2071 assessed as reduction in norfloxacin MIC by checkerboard assay relative to control
Staphylococcus aureus [17] = assay: Potentiation of norfloxacin-induced antibacterial activity against clinical isolates of methicillin-resistant Staphylococcus aureus P4650 assessed as norfloxacin MIC by checkerboard assay
Staphylococcus aureus [18] = assay: Potentiation of norfloxacin-induced antibacterial activity against clinical isolates of methicillin-resistant Staphylococcus aureus P4629 assessed as norfloxacin MIC by checkerboard assay
Staphylococcus aureus [19] = assay: Antibacterial activity against clinical isolates of methicillin-resistant Staphylococcus aureus P4629 by broth microdilution assay
Staphylococcus aureus [20] = assay: Potentiation of norfloxacin-induced antibacterial activity against clinical isolates of methicillin-resistant Staphylococcus aureus ST10760 assessed as norfloxacin MIC by checkerboard assay
Staphylococcus aureus [21] = assay: Antibacterial activity against clinical isolates of methicillin-resistant Staphylococcus aureus P4423 by broth microdilution assay
Staphylococcus aureus [22] = assay: Potentiation of norfloxacin-induced antibacterial activity against clinical isolates of methicillin-resistant Staphylococcus aureus P4629 assessed as reduction in norfloxacin MIC by checkerboard assay relative to control
Staphylococcus aureus [23] = assay: Potentiation of norfloxacin-induced antibacterial activity against clinical isolates of methicillin-resistant Staphylococcus aureus P4423 assessed as norfloxacin MIC by checkerboard assay
Staphylococcus aureus [24] = assay: Antibacterial activity against clinical isolates of methicillin-resistant Staphylococcus aureus ST2071 by broth microdilution assay
Staphylococcus aureus [25] = assay: Antibacterial activity against clinical isolates of methicillin-resistant Staphylococcus aureus ST10342 by broth microdilution assay
Staphylococcus aureus [26] = assay: Antibacterial activity against clinical isolates of methicillin-resistant Staphylococcus aureus ST10760 by checkerboard assay in presence of norfloxacin
Staphylococcus aureus [27] = assay: Antibacterial activity against clinical isolates of methicillin-resistant Staphylococcus aureus P4423 by checkerboard assay in presence of norfloxacin
Staphylococcus aureus [28] = assay: Antibacterial activity against clinical isolates of methicillin-resistant Staphylococcus aureus P4650 by checkerboard assay in presence of norfloxacin
Staphylococcus aureus [29] = assay: Antibacterial activity against clinical isolates of methicillin-resistant Staphylococcus aureus P4650 by broth microdilution assay
Staphylococcus aureus [30] = assay: Antibacterial activity against clinical isolates of methicillin-resistant Staphylococcus aureus ST2071 by checkerboard assay in presence of norfloxacin
Staphylococcus aureus [31] = assay: Antibacterial activity against clinical isolates of methicillin-resistant Staphylococcus aureus P4629 by checkerboard assay in presence of norfloxacin
Staphylococcus aureus [32] = assay: Ratio of MIC for clinical isolates of methicillin-resistant Staphylococcus aureus ST10342 to MIC for clinical isolates of methicillin-resistant Staphylococcus aureus ST10342 in presence of norfloxacin
Staphylococcus aureus [33] = assay: Ratio of MIC for clinical isolates of methicillin-resistant Staphylococcus aureus P4629 to MIC for clinical isolates of methicillin-resistant Staphylococcus aureus P4629 in presence of norfloxacin
Staphylococcus aureus [34] = assay: Ratio of MIC for clinical isolates of methicillin-resistant Staphylococcus aureus P4650 to MIC for clinical isolates of methicillin-resistant Staphylococcus aureus P4650 in presence of norfloxacin

SMILES	fold change (FC) (Staphylococcus aureus [1])	fold change (FC) (Staphylococcus aureus [3])	fold change (FC) (Staphylococcus aureus [4])	MIC (Staphylococcus aureus [5])	fold change (FC) (Staphylococcus aureus [7])	MIC (Staphylococcus aureus [9])	MIC (Staphylococcus aureus [10])	MIC (Staphylococcus aureus [11])	fold change (FC) (Staphylococcus aureus [12])	fractional inhibitory concentration index (FICI) (Staphylococcus aureus [13])	fold change (FC) (Staphylococcus aureus [15])	fold change (FC) (Staphylococcus aureus [16])	MIC (Staphylococcus aureus [17])	MIC (Staphylococcus aureus [18])	MIC (Staphylococcus aureus [19])	MIC (Staphylococcus aureus [20])	MIC (Staphylococcus aureus [21])	fold change (FC) (Staphylococcus aureus [22])	MIC (Staphylococcus aureus [23])	MIC (Staphylococcus aureus [24])	further results
COc1cc(OC)c([C@@H]2COc3c(cc(/C=C/C(=O)c4ccc(OC)c(OC)c4)c4c3C=CC(C)(C)O4)C2)cc1/C=C/C(=O)c1ccc(OC)c(OC)c1	8	<=1.52	4	125 mg/L	2	25 mg/L (≈ 34.1 µM)	62.5 mg/L	12.5 mg/L (≈ 17.1 µM)	4	0.75	4	4	62.5 mg/L	125 mg/L	12.5 mg/L (≈ 17.1 µM)	62.5 mg/L	25 mg/L (≈ 34.1 µM)	4	62.5 mg/L	25 mg/L (≈ 34.1 µM)	Ratio (Staphylococcus aureus [2]): 4; fold change (FC) (Staphylococcus aureus [6]): <=3; Ratio (Staphylococcus aureus [8]): 4; Ratio (Staphylococcus aureus [14]): 4; MIC (Staphylococcus aureus [25]): 12.5 mg/L (≈ 17.1 µM); fractional inhibitory concentration index (FICI) (Staphylococcus aureus [26]): 0.375; fractional inhibitory concentration index (FICI) (Staphylococcus aureus [27]): 0.75; fractional inhibitory concentration index (FICI) (Staphylococcus aureus [28]): 0.75; MIC (Staphylococcus aureus [29]): 12.5 mg/L (≈ 17.1 µM); fractional inhibitory concentration index (FICI) (Staphylococcus aureus [30]): 0.5; fractional inhibitory concentration index (FICI) (Staphylococcus aureus [31]): 0.5
COc1ccc([C@@H]2COc3c(cc(/C=C/C(=O)c4ccco4)c4c3C=CC(C)(C)O4)C2)c(OC)c1	8	<=1.52	4	62.5 mg/L	2	25 mg/L (≈ 52.9 µM)	31.2 mg/L	12.5 mg/L (≈ 26.5 µM)	8	0.5	8	8	62.5 mg/L	125 mg/L	12.5 mg/L (≈ 26.5 µM)	62.5 mg/L	12.5 mg/L (≈ 26.5 µM)	4	31.2 mg/L	25 mg/L (≈ 52.9 µM)	Ratio (Staphylococcus aureus [2]): 4; Ratio (Staphylococcus aureus [32]): 4; fold change (FC) (Staphylococcus aureus [6]): <=3; Ratio (Staphylococcus aureus [8]): 4; Ratio (Staphylococcus aureus [33]): 4; Ratio (Staphylococcus aureus [14]): 4; Ratio (Staphylococcus aureus [34]): 4; MIC (Staphylococcus aureus [25]): 12.5 mg/L (≈ 26.5 µM); fractional inhibitory concentration index (FICI) (Staphylococcus aureus [26]): 0.375; fractional inhibitory concentration index (FICI) (Staphylococcus aureus [27]): 0.5; fractional inhibitory concentration index (FICI) (Staphylococcus aureus [28]): 0.625; MIC (Staphylococcus aureus [29]): 12.5 mg/L (≈ 26.5 µM); fractional inhibitory concentration index (FICI) (Staphylococcus aureus [30]): 0.375; fractional inhibitory concentration index (FICI) (Staphylococcus aureus [31]): 0.625
CC1(C)C=Cc2c(ccc3c2OC[C@@H](c2ccc(O)cc2O)C3)O1 [GLABRIDIN]	4	<=1.52	4	250 mg/L	2	12.5 mg/L (≈ 38.5 µM)	125 mg/L	3.12 mg/L (≈ 9.63 µM)	2	1	2	2	62.5 mg/L	125 mg/L	12.5 mg/L (≈ 38.5 µM)	125 mg/L	12.5 mg/L (≈ 38.5 µM)	4	125 mg/L	12.5 mg/L (≈ 38.5 µM)	Ratio (Staphylococcus aureus [33]): 4; Ratio (Staphylococcus aureus [34]): 4; MIC (Staphylococcus aureus [25]): 12.5 mg/L (≈ 38.5 µM); fractional inhibitory concentration index (FICI) (Staphylococcus aureus [26]): 0.75; fractional inhibitory concentration index (FICI) (Staphylococcus aureus [27]): 1; fractional inhibitory concentration index (FICI) (Staphylococcus aureus [28]): 0.5; MIC (Staphylococcus aureus [29]): 12.5 mg/L (≈ 38.5 µM); fractional inhibitory concentration index (FICI) (Staphylococcus aureus [30]): 0.75; fractional inhibitory concentration index (FICI) (Staphylococcus aureus [31]): 0.5
COc1ccc([C@@H]2COc3c(cc(/C=C/C(=O)c4ccc(OC)c(OC)c4)c4c3C=CC(C)(C)O4)C2)c(OC)c1	4	<=1.52	4	125 mg/L	2	50 mg/L (≈ 92.1 µM)	31.2 mg/L	25 mg/L (≈ 46.1 µM)	8	0.375	4	4	62.5 mg/L	62.5 mg/L	50 mg/L (≈ 92.1 µM)	125 mg/L	50 mg/L (≈ 92.1 µM)	8	62.5 mg/L	50 mg/L (≈ 92.1 µM)	Ratio (Staphylococcus aureus [2]): <=4; Ratio (Staphylococcus aureus [32]): <=4; fold change (FC) (Staphylococcus aureus [6]): <=4; Ratio (Staphylococcus aureus [33]): <=4; Ratio (Staphylococcus aureus [34]): <=4; MIC (Staphylococcus aureus [25]): 50 mg/L (≈ 92.1 µM); fractional inhibitory concentration index (FICI) (Staphylococcus aureus [26]): 0.75; fractional inhibitory concentration index (FICI) (Staphylococcus aureus [27]): 0.75; fractional inhibitory concentration index (FICI) (Staphylococcus aureus [28]): 0.5; MIC (Staphylococcus aureus [29]): 50 mg/L (≈ 92.1 µM); fractional inhibitory concentration index (FICI) (Staphylococcus aureus [30]): 0.5; fractional inhibitory concentration index (FICI) (Staphylococcus aureus [31]): 0.375
